For 5 molecules, IC50 results are on record in ChEMBL document CHEMBL1177704, “Unexpected reaction of 2-alkylsulfanylimidazoles to imidazol-2-ones: pyridinylimidazol-2-ones as novel potent p38alpha mitogen-activated protein kinase inhibitors” (J Med Chem, 2010).

Assay [1] deals with Mitogen-activated protein kinase 14 (Homo sapiens, UniProt Q16539). In words: Inhibition of p38alpha.
For the next assay, the system named is Blood. Kind of assay: Antiinflammatory activity in human whole blood assessed as inhibition of LPS-stimulated TNFalpha release after 15 mins by ELISA. The settings on record: 0.25 h. It counts as functional, tissue-based. Background: ELISA stands for enzyme-linked immunosorbent assay.

Chain of Mitogen-activated protein kinase 14 (Q16539 whole entry): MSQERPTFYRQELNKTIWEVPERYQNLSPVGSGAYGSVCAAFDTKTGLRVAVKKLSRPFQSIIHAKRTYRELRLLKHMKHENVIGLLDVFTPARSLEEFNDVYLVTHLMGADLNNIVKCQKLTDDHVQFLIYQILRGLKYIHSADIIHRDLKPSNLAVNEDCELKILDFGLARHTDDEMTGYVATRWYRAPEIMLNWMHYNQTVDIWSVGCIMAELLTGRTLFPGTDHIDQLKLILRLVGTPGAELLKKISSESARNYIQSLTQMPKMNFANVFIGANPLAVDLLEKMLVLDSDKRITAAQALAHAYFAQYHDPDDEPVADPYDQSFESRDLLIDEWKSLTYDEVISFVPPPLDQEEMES

As a reminder, the IC50 is the midpoint of a concentration-inhibition curve. `O=c1[nH]c(-c2ccncc2)c(-c2ccc(F)cc2)[nH]1` yielded an IC50 in assay [1] of 468 nM.
As to `O=c1[nH]c(-c2ccc(F)cc2)c(-c2ccnc(N[C@H]3CC[C@H](O)CC3)c2)[nH]1`, the IC50 in assay [1] turned out to be 23 nM; with Blood, 2920 nM.
Regarding `CC(C)[C@H](C)Nc1cc(-c2[nH]c(=O)[nH]c2-c2ccc(F)cc2)ccn1`, the IC50 in assay [1] turned out to be 49 nM; with Blood, 381 nM.
As for `C[C@@H](Nc1cc(-c2[nH]c(=O)[nH]c2-c2ccc(F)cc2)ccn1)c1ccccc1`, inhibition in assay [1] was half-maximal at 324 nM (IC50).
`C[S+]([O-])c1ccc(-c2nc(-c3ccc(F)cc3)c(-c3ccncc3)[nH]2)cc1` (configuration not stated) [SB-203580]: the IC50 with Blood was 1760 nM.
